A short description of data set [1]: Antiproliferative activity against Adenovirus type 12 E1A transformed rat 3Y1cells after 3 days by tetrazolium based cell counting assay. As to conditions: 72 h.
The target in data set [2] is ATP synthase subunit beta, mitochondrial (Saccharomyces cerevisiae S288c, UniProt P00830). Put plainly: Inhibition of yeast mitochondrial F0F1-ATPase.
Data set [3] can be described thus: Antiproliferative activity against rat 3Y1 cells after 3 days by tetrazolium based cell counting assay.
A further data set has as its system NCI-H292. Description: Cytotoxicity activity in human NCI-H292 cells after 48 hrs by thiazolyl blue tetrazolium bromide assay. The format is functional, cell-based. As to conditions: NCI-H292, 48 h.

Consider 11 compounds from ChEMBL document CHEMBL1154294, “An approach to the site-selective diversification of apoptolidin A with peptide-based catalysts” (J Nat Prod, 2009).

The GI50 is the concentration that inhibits growth by half. High values mean lower sensitivity of the cells, low ones greater sensitivity of the cells. The term IC50 denotes the point on the concentration scale where inhibition reaches its midpoint. Broadly, the EC50 is the concentration at which the effect is half-maximal.

Each structure is given as a SMILES string.

Chain of ATP synthase subunit beta, mitochondrial (P00830 whole entry): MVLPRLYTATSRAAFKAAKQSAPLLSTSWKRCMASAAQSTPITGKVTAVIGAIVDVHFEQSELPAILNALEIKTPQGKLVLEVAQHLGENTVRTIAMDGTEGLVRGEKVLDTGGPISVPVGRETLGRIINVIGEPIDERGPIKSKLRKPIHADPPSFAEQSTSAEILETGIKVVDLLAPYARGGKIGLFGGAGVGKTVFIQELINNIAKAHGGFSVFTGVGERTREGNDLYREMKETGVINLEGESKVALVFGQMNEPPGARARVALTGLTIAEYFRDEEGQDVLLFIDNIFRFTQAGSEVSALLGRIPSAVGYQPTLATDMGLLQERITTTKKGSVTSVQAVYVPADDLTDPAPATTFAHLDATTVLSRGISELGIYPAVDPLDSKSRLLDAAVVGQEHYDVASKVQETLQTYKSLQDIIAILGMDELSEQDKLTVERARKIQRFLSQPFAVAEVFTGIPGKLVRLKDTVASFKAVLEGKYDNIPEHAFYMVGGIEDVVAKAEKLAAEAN

`COC[C@@H](CC1O[C@@](O)([C@H](O)C2CC(=O)/C(C)=C/C(C)=C/C(C)=C/[C@@H](C)[C@H](O[C@@H]3O[C@@H](C)[C@H](OC)[C@@H](O)[C@@H]3O)/C=C/C(C)=C/CC[C@H](OC(C)=O)[C@@H](OC)C2)[C@H](C)[C@@H](O)[C@H]1C)O[C@H]1C[C@](C)(O)[C@@H](O[C@H]2C[C@@H](OC)[C@H](O)[C@@H](C)O2)[C@H](C)O1` (some centres not stated) displayed a GI50 in data set [1] of 56 nM. Also, the IC50 in data set [2] was found to be 800 nM. Also, the GI50 at 72 h in data set [3] was over 1000 nM.

`COC[C@@H](CC1O[C@@](O)([C@@H]2OC(=O)/C(C)=C/C(C)=C/C(C)=C/[C@@H](C)[C@H](O[C@@H]3O[C@@H](C)[C@H](OC)[C@@H](O)[C@@H]3O)/C=C/C(C)=C/CC[C@H](O)[C@@H](OC)C[C@@H]2O)[C@H](C)[C@@H](O)[C@H]1C)O[C@H]1C[C@](C)(O)[C@@H](O[C@H]2C[C@@H](OC)[C@H](O)[C@@H](C)O2)[C@H](C)O1` (some centres not stated) [ISOAPOPTOLIDIN]: in data set [1], the GI50 worked out at 9 nM. Also, in data set [2], the IC50 was 17000 nM. Also, in data set [3], the GI50 at 72 h is over 1000 nM.

For the compound `COC[C@@H](CC1O[C@@](O)([C@H](O)C2CC(=O)/C(C)=C/C(C)=C/C(C)=C/[C@@H](C)[C@H](O[C@@H]3O[C@@H](C)[C@H](OC)[C@@H](O)[C@@H]3OC(=O)c3ccccc3)/C=C/C(C)=C/CC[C@H](O)[C@@H](OC)C2)[C@H](C)[C@@H](O)[C@H]1C)O[C@H]1C[C@](C)(O)[C@@H](O[C@H]2C[C@@H](OC)[C@H](O)[C@@H](C)O2)[C@H](C)O1` (some centres not stated), growth in data set [1] was halved (GI50) at 3.6 nM. The IC50 in data set [2] stood at 300 nM. Also, the GI50 at 72 h in data set [3] was over 1000 nM.

In the data set with NCI-H292, `COC[C@@H](CC1O[C@@](O)([C@H](OC(C)=O)C2CC(=O)/C(C)=C/C(C)=C/C(C)=C/[C@@H](C)[C@H](O[C@@H]3O[C@@H](C)[C@H](OC)[C@@H](O)[C@@H]3OC(C)=O)/C=C/C(C)=C/CC[C@H](O)[C@@H](OC)C2)[C@H](C)[C@@H](O)[C@H]1C)O[C@H]1C[C@](C)(O)[C@@H](O[C@H]2C[C@@H](OC)[C@H](OC(C)=O)[C@@H](C)O2)[C@H](C)O1` (some centres not stated) displayed an EC50 of 48 nM.

Regarding `COC[C@@H](CC1O[C@@](O)([C@H](O)C2CC(=O)/C(C)=C/C(C)=C/C(C)=C/[C@@H](C)[C@H](O[C@@H]3O[C@@H](C)[C@H](OC)[C@@H](OC(C)=O)[C@@H]3O)/C=C/C(C)=C/CC[C@H](O)[C@@H](OC)C2)[C@H](C)[C@@H](O)[C@H]1C)O[C@H]1C[C@](C)(O)[C@@H](O[C@H]2C[C@@H](OC)[C@H](O)[C@@H](C)O2)[C@H](C)O1` (some centres not stated), the concentration for 50% growth inhibition (GI50) in data set [1] was 2.7 nM. The IC50 in data set [2] is 400 nM. The compound further registered a GI50 at 72 h in data set [3] of over 1000 nM.

Regarding `COC[C@@H](CC1O[C@@](O)([C@H](OC)C2CC(=O)/C(C)=C/C(C)=C/C(C)=C/[C@@H](C)[C@H](O[C@@H]3O[C@@H](C)[C@H](OC)[C@@H](O)[C@@H]3O)/C=C/C(C)=C/CC[C@H](O)[C@@H](OC)C2)[C@H](C)[C@@H](O)[C@H]1C)O[C@H]1C[C@](C)(O)[C@@H](O[C@H]2C[C@@H](OC)[C@H](O)[C@@H](C)O2)[C@H](C)O1` (some centres not stated), in data set [1], the GI50 turned out to be 12 nM. The compound also returned an IC50 in data set [2] of 2800 nM. Besides, the GI50 at 72 h in data set [3] is over 1000 nM.

In turn, `COC[C@@H](CC1O[C@@](O)([C@H](O)C2CC(=O)/C(C)=C/C(C)=C/C(C)=C/[C@@H](C)[C@H](O[C@@H]3O[C@@H](C)[C@H](OC)[C@@H](O)[C@@H]3O)/C=C/C(C)=C/CC[C@H](O)[C@@H](OC)C2)[C@H](C)[C@@H](O)[C@H]1C)O[C@H]1C[C@](C)(O)[C@@H](O[C@H]2C[C@@H](OC)[C@H](OC(C)=O)[C@@H](C)O2)[C@H](C)O1` (some centres not stated) returned a GI50 in data set [1] of 9.8 nM. Besides, inhibition in data set [2] was half-maximal at 800 nM (IC50). The compound also yielded a GI50 at 72 h in data set [3] of over 1000 nM.

In data set [1], `COC[C@@H](CC1O[C@@](O)([C@H](O)C2CC(=O)/C(C)=C/C(C)=C/C(C)=C/[C@@H](C)[C@H](O[C@@H]3O[C@@H](C)[C@H](OC)[C@@H](O)[C@@H]3O)/C=C/C(C)=C/CC[C@H](O)[C@@H](OC)C2)[C@H](C)[C@@H](OC(C)=O)[C@H]1C)O[C@H]1C[C@](C)(O)[C@@H](O[C@H]2C[C@@H](OC)[C@H](OC(C)=O)[C@@H](C)O2)[C@H](C)O1` (some centres not stated) yielded a GI50 of 9.5 nM. Further, in data set [2], the IC50 came to 400 nM. The compound further showed a GI50 at 72 h in data set [3] of over 600 nM.

In data set [1], `COC[C@@H](CC1O[C@@](O)([C@H](OC(C)=O)C2CC(=O)/C(C)=C/C(C)=C/C(C)=C/[C@@H](C)[C@H](O[C@@H]3O[C@@H](C)[C@H](OC)[C@@H](O)[C@@H]3O)/C=C/C(C)=C/CC[C@H](O)[C@@H](OC)C2)[C@H](C)[C@@H](O)[C@H]1C)O[C@H]1C[C@](C)(O)[C@@H](O[C@H]2C[C@@H](OC)[C@H](O)[C@@H](C)O2)[C@H](C)O1` (some centres not stated) yielded a GI50 of 11 nM. This compound showed a half-inhibitory concentration (IC50) in data set [2] of 1100 nM. The compound further registered a GI50 at 72 h in data set [3] of over 1000 nM.

In turn, `COC[C@@H](CC1O[C@@](O)([C@H](O)C2CC(=O)/C(C)=C/C(C)=C/C(C)=C/[C@@H](C)[C@H](O[C@@H]3O[C@@H](C)[C@H](OC)[C@@H](O)[C@@H]3OC(C)=O)/C=C/C(C)=C/CC[C@H](O)[C@@H](OC)C2)[C@H](C)[C@@H](O)[C@H]1C)O[C@H]1C[C@](C)(O)[C@@H](O[C@H]2C[C@@H](OC)[C@H](O)[C@@H](C)O2)[C@H](C)O1` (some centres not stated) showed an EC50 in the data set on NCI-H292 of 60 nM. This counts as double-digit nanomolar.

The compound `COC[C@@H](CC1O[C@@](O)([C@H](OC(C)=O)C2CC(=O)/C(C)=C/C(C)=C/C(C)=C/[C@@H](C)[C@H](O[C@@H]3O[C@@H](C)[C@H](OC)[C@@H](OC(C)=O)[C@@H]3OC(C)=O)/C=C/C(C)=C/CC[C@H](O)[C@@H](OC)C2)[C@H](C)[C@@H](O)[C@H]1C)O[C@H]1C[C@](C)(O)[C@@H](O[C@H]2C[C@@H](OC)[C@H](O)[C@@H](C)O2)[C@H](C)O1` (some centres not stated) registered an EC50 with NCI-H292 of 48 nM.
